Experimental findings from EPA's ToxValDB 9.5 are described below.

The test system of series [1] is Rattus norvegicus. As to conditions: oral.
In series [2] the test system is Rattus norvegicus. As to conditions: acute, oral.
Setting [3] is: subchronic, gavage, M, Sprague-Dawley.
Setting [4] is: chronic, duration: 91 days, gavage, M/F, Wistar, Blood Chemistry: Ca increase, TP increase, Glob increase, TG increase, Glu decrease + Absolute Organ Weight: Liver increase, Kidney increase….
[5] abbreviates: short-term, duration: 28 days, gavage, M, Sprague-Dawley, Clinical Observation: Salivation Orange urinelocomotor activity decreaserespiratory rate decrease, Incomplete eye opening Staining around ….

Broadly, the NOAEL is the highest dose or exposure tested at which no adverse effect was seen. In general, LD50 refers to the dose at which mortality reaches 50%.

Take `CCC(C)(C)c1ccc(O)c(C(C)(C)CC)c1` [2,4-Di-tert-pentylphenol]: in the series with Rattus norvegicus [1] (subchronic, gavage, M, Sprague-Dawley, Deaths + Clinical Observation: Salivation/100 Soft feces/100 + Body Weight Changes: Body weight gain decrease + Urinalysis: Volume increase…), the no observed adverse effect level (NOAEL) was 10 mg/kg-day. For the same molecule, the LD50 with Rattus norvegicus [2] (Sprague-Dawley) worked out at 920 mg/kg.
Turning to `CCC(C)c1cc(C(C)(C)C)c(O)c(C(C)(C)C)c1` (configuration not stated) [4-(Butan-2-yl)-2,6-di-tert-butylphenol], the NOEL with Rattus norvegicus [1] (short-term, duration: 28 days, gavage, F, Sprague-Dawley, Clinical Observation: Soft feces + Urinalysis: pH decrease + Hematology: PT increase, APTT increase + Blood Chemistry: T-CHO increase, T-BIL…) was below 15 mg/kg-day; in the series with Rattus norvegicus [1] (short-term, duration: 28 days, gavage, M, Sprague-Dawley, Clinical Observation: Soft feces + Urinalysis: pH decrease + Hematology: PT increase, APTT increase + Blood Chemistry: T-CHO increase, T-BIL…), 15 mg/kg-day. Moreover, the LC50 in the series on Rattus norvegicus [2] (Sprague-Dawley) is 4800 mg/kg.
For the molecule `CCCCCCCCCCCCCCCCCC(=O)OCCOC(=O)CCCCCCCCCCCCCCCCC` [Octadecanoic acid, 1,2-ethanediyl ester], in the series with Rattus norvegicus [1] (setting [3]), the no-observed-adverse-effect level (NOAEL) worked out at 1000 mg/kg-day and the NOEL was 1000 mg/kg-day. The same molecule yielded a 50% lethal dose (LD50) in the series with Rattus norvegicus [2] (gavage) above 10000 mg/kg.
Turning to `O=C([O-])C1=Cc2sc(Cn3ccnc3)cc2CC1.[Na+]` [RS 5186], the no-observed-adverse-effect level (NOAEL) in the series on Rattus norvegicus [1] (subchronic, duration: 90 days, gavage, M/F, CD, Clinical Observation: Salivation Chylous or dark red-brown urine + Absolute Organ Weight: Liver increase + Relative Organ Weight: Liver …) was 30 mg/kg-day.
As to `C[C@@H](NCCc1ccc(O)cc1)[C@@H](O)c1ccc(O)cc1.Cl` [Ritodrine hydrochloride], the NOEL in the series on Rattus norvegicus [1] (subchronic, duration: 35 days, gavage, M/F, Sprague-Dawley, Deaths + Clinical Observation: Locomotor activity decrease, Increased respiration rate Deep respiration Prone, lateral, or supine position …) was found to be 32 mg/kg-day.
In the case of `O=[Se](=O)([O-])[O-].[Na+].[Na+]` [Sodium selenate], the NOEL in the series on Rattus norvegicus [1] (subchronic, drinking water, F, Fischer 344, Deaths + Body Weight Changes: decrease + Hematology: Hct increase, Hgb increase, RBC increase + Blood Chemistry: BUN increase ALT increase, …) worked out at 0.31 mg/kg-day; in the series with Rattus norvegicus [1] (subchronic, drinking water, M/F, Fischer 344, Deaths + Body Weight Changes: decrease + Hematology: Hct increase, Hgb increase, RBC increase + Blood Chemistry: BUN increase ALT increase, …) it was 0.57 mg/kg-day.
Consider `O=C1CCC(=O)O1` [Succinic anhydride], for which the NOEL in the series with Rattus norvegicus [1] (subchronic, duration: 13 weeks, gavage, M/F, Fischer 344, Deaths + Clinical Observation: Lethargy Distended abdomens + Body Weight Changes: decrease + Absolute Organ Weight: Liver increase + …) stood at 50 mg/kg-day.
With `Nc1ccc(S(N)(=O)=O)cc1` [Sulfanilamide], in the series with Rattus norvegicus [1] (short-term, duration: 28 days, gavage, M/F, Sprague-Dawley, Clinical Observation: Salivation + Functional Observational Battery: Auditory response decrease, Disappearance, aerial righting reflex …), the NOEL came to 50 mg/kg-day.
In the case of `O=C(O)c1cc(N=Nc2ccc(S(=O)(=O)Nc3ccccn3)cc2)ccc1O` [Sulfasalazine], the NOEL in the series on Rattus norvegicus [1] (subchronic, duration: 13 weeks, gavage, M/F, Fischer 344, Body Weight Changes: decrease + Blood Chemistry: TSH increase T3 decrease T4 decrease + Absolute Organ Weight: Right kidney increase + …) is below 84 mg/kg-day.
Take `CCCCCc1cc(O)c2c(c1)OC(C)(C)[C@@H]1CCC(C)=C[C@@H]21` [Tetrahydrocannabinol]: in the series on Rattus norvegicus [1] (subchronic, duration: 13 weeks, gavage, M/F, Fischer 344, Deaths: Administration groups for 13 weeks(1/10 )(2/10 )(6/10 /10 ) + Clinical Observation: Convulsion Aggressive behavior: Dose is unknown …), the NOEL was below 5 mg/kg-day.
Turning to `NNC(N)=S` [Thiosemicarbazide], in the series with Rattus norvegicus [1] (subchronic, gavage, M, Sprague-Dawley, Functional Observational Battery: Tonic convulsion Hypersensitive reaction in touch response and tail pinch response + Body Weight Changes: …), the NOEL was 0.4 mg/kg-day.
As for `c1ccc(P(c2ccccc2)c2ccccc2)cc1` [Triphenylphosphine], in the series on Rattus norvegicus [1] (setting [4]), the NOAEL amounted to 60 mg/kg-day and the NOEL came to 6 mg/kg-day.
On to `O=[N+]([O-])C(Br)=Cc1ccccc1` [beta-Bromo-beta-nitrostyrene], for which the NOEL in the series on Rattus norvegicus [1] (subchronic, gavage, M/F, Fischer 344, Deaths + Body Weight Changes: decrease>150 af>>300 + Hematology: RBC increase, WBC increase, Seg increase, Ret increase + Blood Chemistry: …) is below 37 mg/kg-day.
As to `CC(=O)/C=C/C1=C(C)CCCC1(C)C` [beta-Ionone], in the series on Rattus norvegicus [1] (subchronic, duration: 90 days, diet, M/F, Wistar, Urinalysis: Ket increase, Uro increase, Transitional epithelial cell increase, Epithelial cell casts + Blood Chemistry: gamma-GTP increase, …), the no observed adverse effect level (NOAEL) was 96 mg/kg-day.
As for `COc1ccc([N+](=O)[O-])cc1` [p-Nitroanisole], in the series on Rattus norvegicus [1] (setting [5]), the NOAEL stood at 100 mg/kg-day and the NOEL was below 100 mg/kg-day.
`N#Cc1c(Cl)c(Cl)c(C#N)c(Cl)c1Cl` [p-Phthalodinitrile, tetrachloro-] gave an NOEL in the series with Rattus norvegicus [1] (subchronic, gavage, Sprague-Dawley) of 1000 mg/kg-day.
In the case of `CC(C)(C)S` [t-Butyl mercaptan], the NOEL with Rattus norvegicus [1] (subchronic, gavage, M, CD(SD), Clinical Observation: Salivation + Body Weight Changes: decrease + Food Consumption: decrease + Hematology: RBC decrease, HGB decrease, HCT …) was below 10 mg/kg-day; in the series on Rattus norvegicus [1] (subchronic, gavage, M, Sprague-Dawley, Body Weight Changes: decrease200 + Hematology: MCHC decrease, APTT increase, RBC decrease, Hgb decrease, Hct decrease, Plt increase, PT …), below 10 mg/kg-day.
`ClC1=C(Cl)[C@]2(Cl)[C@H]3[C@H]([C@H](Cl)C(Cl)[C@@H]3Cl)[C@@]1(Cl)C2(Cl)Cl` (stereo partly drawn) [trans-Nonachlor]: in the series on Rattus norvegicus [1] (subchronic, diet, M/F, Sprague-Dawley, Blood Chemistry: Pi increase, A/G decrease, Thyroxine increasetake decrease, T4 increase + Absolute Organ Weight: Liver increase + Relative …), the NOEL was below 0.48 mg/kg-day.
